According to ChEMBL document CHEMBL4680163, “Discovery of potent epidermal growth factor receptor (EGFR) degraders by proteolysis targeting chimera (PROTAC)” (Eur J Med Chem, 2020):
Activity calls are given as the source filed them. No cut-off for these calls is given here.

Columns and labels:
HCC827 [1] = assay: Antiproliferative activity against human HCC827 cells harboring EGFRDel19 mutant assessed as reduction in cell viability incubated for 72 hrs by MTT assay; format: functional, cell-based; conditions: HCC827, 72 h
A-431 = assay: Antiproliferative activity against human A-431 cells harboring EGFR assessed as reduction in cell viability incubated for 72 hrs by MTT assay; format: functional, cell-based; conditions: A-431, 72 h
NCI-H1975 = assay: Antiproliferative activity against human NCI-H1975 cells harboring EGFR L858/T790M mutant assessed as reduction in cell viability incubated for 72 hrs by MTT assay; format: functional, cell-based; conditions: NCI-H1975, 72 h
HCC827 [2] = assay: Induction of cell cycle arrest in human HCC827 cells assessed as accumulation in G1 phase at 0.1 uM incubated for 32 hrs by PI staining based flow cytometry analysis (reference value: 50.48 %); format: functional
HCC827 [3] = assay: Induction of apoptosis in human HCC827 cells assessed as late apoptotic cells at 1 uM incubated for 32 hrs by annexin V-FITC and PI staining based flow cytometry analysis (reference value: 18.02%); format: functional
HCC827 [4] = assay: Induction of apoptosis in human HCC827 cells assessed as early apoptotic cells at 0.1 uM incubated for 32 hrs by annexin V-FITC and PI staining based flow cytometry analysis (reference value: 2.31 %); format: functional
HCC827 [5] = assay: Induction of apoptosis in human HCC827 cells assessed as necrotic cells at 1 uM incubated for 32 hrs by annexin V-FITC and PI staining based flow cytometry analysis (reference value: 7.12 %); format: functional
HCC827 [6] = assay: Induction of apoptosis in human HCC827 cells assessed as necrotic cells at 0.1 uM incubated for 32 hrs by annexin V-FITC and PI staining based flow cytometry analysis (reference value: 6.68 %); format: functional
HCC827 [7] = assay: Induction of cell cycle arrest in human HCC827 cells assessed as accumulation in G1 phase at 1 uM incubated for 32 hrs by PI staining based flow cytometry analysis (reference value: 50.48 %); format: functional
HCC827 [8] = assay: Induction of cell cycle arrest in human HCC827 cells assessed as accumulation in S phase at 0.1 uM incubated for 32 hrs by PI staining based flow cytometry analysis (reference value: 41.26 %); format: functional
HCC827 [9] = assay: Induction of apoptosis in human HCC827 cells assessed as early apoptotic cells at 1 uM incubated for 32 hrs by annexin V-FITC and PI staining based flow cytometry analysis (reference value: 2.72%); format: functional
HCC827 [10] = assay: Induction of apoptosis in human HCC827 cells assessed as viable cells at 0.1 uM incubated for 32 hrs by annexin V-FITC and PI staining based flow cytometry analysis (reference value: 76.79 %); format: functional; conditions: read-out: Activity
HCC827 [11] = assay: Induction of apoptosis in human HCC827 cells assessed as late apoptotic cells at 0.1 uM incubated for 32 hrs by annexin V-FITC and PI staining based flow cytometry analysis (reference value: 14.23 %); format: functional
HCC827 [12] = assay: Induction of cell cycle arrest in human HCC827 cells assessed as accumulation in S phase at 1 uM incubated for 32 hrs by PI staining based flow cytometry analysis (reference value: 41.26 %); format: functional
HCC827 [13] = assay: Induction of cell cycle arrest in human HCC827 cells assessed as accumulation in G2 phase at 0.1 uM incubated for 32 hrs by PI staining based flow cytometry analysis (reference value: 8.25 %); format: functional
HCC827 [14] = assay: Induction of apoptosis in human HCC827 cells assessed as viable cells at 1 uM incubated for 32 hrs by annexin V-FITC and PI staining based flow cytometry analysis (reference value: 72.15 %); format: functional; conditions: read-out: Activity
[15] = target: Epidermal growth factor receptor (Homo sapiens) (UniProt P00533); assay: Inhibition of EGFR in human HCC827 cells assessed as reduction in EGFR phosphorylation incubated for 36 hrs by Western blot analysis; format: cell-based; conditions: dose 0.1-1 µM
HCC827 [16] = assay: Induction of cell cycle arrest in human HCC827 cells assessed as accumulation in G2 phase at 1 uM incubated for 32 hrs by PI staining based flow cytometry analysis (reference value: 8.25 %); format: functional
A549 = assay: Antiproliferative activity against human A549 cells harboring EGFR assessed as reduction in cell viability incubated for 72 hrs by MTT assay; format: functional, cell-based; conditions: A549, 72 h

Epidermal growth factor receptor (Homo sapiens), sequence (P00533 whole entry): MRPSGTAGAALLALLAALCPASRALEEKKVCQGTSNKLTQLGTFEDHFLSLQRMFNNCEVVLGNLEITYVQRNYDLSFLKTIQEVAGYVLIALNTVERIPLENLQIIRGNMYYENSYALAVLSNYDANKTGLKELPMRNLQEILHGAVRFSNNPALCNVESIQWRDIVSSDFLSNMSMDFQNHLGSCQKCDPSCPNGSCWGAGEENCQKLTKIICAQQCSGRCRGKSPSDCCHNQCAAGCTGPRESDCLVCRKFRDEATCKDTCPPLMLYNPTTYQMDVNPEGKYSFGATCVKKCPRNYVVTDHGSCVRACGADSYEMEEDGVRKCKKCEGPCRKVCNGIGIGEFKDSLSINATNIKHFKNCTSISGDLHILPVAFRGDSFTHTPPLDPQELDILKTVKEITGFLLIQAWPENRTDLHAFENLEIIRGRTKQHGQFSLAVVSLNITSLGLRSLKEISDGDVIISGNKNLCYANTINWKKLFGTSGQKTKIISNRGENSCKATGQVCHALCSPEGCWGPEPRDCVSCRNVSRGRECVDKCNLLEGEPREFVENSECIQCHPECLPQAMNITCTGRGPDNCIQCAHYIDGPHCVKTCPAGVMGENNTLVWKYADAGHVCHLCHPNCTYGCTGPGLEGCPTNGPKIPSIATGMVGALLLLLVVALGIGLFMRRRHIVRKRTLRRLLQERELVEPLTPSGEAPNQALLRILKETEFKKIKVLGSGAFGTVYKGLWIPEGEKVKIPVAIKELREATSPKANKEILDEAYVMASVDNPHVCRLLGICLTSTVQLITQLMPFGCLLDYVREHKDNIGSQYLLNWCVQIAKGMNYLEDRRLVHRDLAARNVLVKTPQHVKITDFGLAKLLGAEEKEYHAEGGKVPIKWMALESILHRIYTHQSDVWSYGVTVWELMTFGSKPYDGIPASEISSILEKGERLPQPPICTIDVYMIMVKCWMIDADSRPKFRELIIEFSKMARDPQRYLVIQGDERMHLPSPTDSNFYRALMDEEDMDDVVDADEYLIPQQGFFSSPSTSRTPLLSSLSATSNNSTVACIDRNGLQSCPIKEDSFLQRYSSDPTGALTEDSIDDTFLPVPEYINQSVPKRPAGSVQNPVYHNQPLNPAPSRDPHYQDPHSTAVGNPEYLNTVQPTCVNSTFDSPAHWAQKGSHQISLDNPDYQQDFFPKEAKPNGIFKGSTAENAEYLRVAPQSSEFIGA

**Q.** `Cc1ncsc1-c1ccc(CNC(=O)[C@@H]2C[C@@H](O)CN2C(=O)[C@@H](NC(=O)CCCCN2CCN(c3ccc(Nc4cc5c(N6CCC(CO)CC6)nc(Nc6ccc(F)cc6)nc5cn4)nc3)CC2)C(C)(C)C)cc1` was tested. Which IC50 (HCC827 [1]) did it give?
**A.** Its IC50 is 1490 nM.

**Q.** With `O=C(CN1CCN(c2ccc(Nc3cc4c(N5CCC(CO)CC5)nc(Nc5ccc(F)cc5)nc4cn3)nc2)CC1)NCCC(=O)Nc1cccc2c1CN(C1CCC(=O)NC1=O)C2=O` (stereo not drawn) as the molecule, how does the IC50 (HCC827 [1]) read?
**A.** Its IC50 is 2760 nM.

**Q.** For `Cc1ncsc1-c1ccc(CNC(=O)[C@@H]2C[C@@H](O)CN2C(=O)[C@@H](N)C(C)(C)C)cc1`, which IC50 (HCC827 [1]) is on record?
**A.** The IC50 was greater than 10000 nM.

**Q.** `O=C1CCC(N2Cc3c(NC(=O)CCCCCCN4CCN(c5ccc(Nc6cc7c(N8CCC(CO)CC8)nc(Nc8ccc(F)cc8)nc7cn6)nc5)CC4)cccc3C2=O)C(=O)N1` (stereo not drawn) was tested. Which IC50 (HCC827 [1]) did it give?
**A.** Its IC50 is 1210 nM.

**Q.** `O=C1CCC(N2Cc3c(NC(=O)CCCCCCCn4cc(CN5CCN(c6ccc(Nc7cc8c(N9CCC(CO)CC9)nc(Nc9ccc(F)cc9)nc8cn7)nc6)CC5)nn4)cccc3C2=O)C(=O)N1` (stereo not drawn) was tested. Which IC50 (HCC827 [1]) did it give?
**A.** Its IC50 is 7910 nM.

**Q.** And the IC50 (A-431)?
**A.** The IC50 was greater than 10000 nM.

**Q.** What about the IC50 (NCI-H1975) of the same molecule?
**A.** The IC50 was greater than 10000 nM.

**Q.** With `CN(C)C1CCN(c2ccc(Nc3cc4c(N5CCC(CO)CC5)nc(Nc5ccc(F)cc5)nc4cn3)nc2)CC1` as the molecule, how does the Activity (HCC827 [2]) read?
**A.** The Activity was 78.84%.

**Q.** And the Activity (HCC827 [3])?
**A.** Its Activity is 53.88%.

**Q.** What about the Activity (HCC827 [4]) of the same molecule?
**A.** The Activity was 8.5%.

**Q.** What about the Activity (HCC827 [5]) of the same molecule?
**A.** The Activity was 16.48%.

**Q.** And the Activity (HCC827 [6])?
**A.** Its Activity is 8.35%.

**Q.** And the Activity (HCC827 [7])?
**A.** Its Activity is 78.98%.

**Q.** And the Activity (HCC827 [8])?
**A.** The Activity was 13.43%.

**Q.** And the Activity (HCC827 [9])?
**A.** The Activity was 4.79%.

**Q.** And the viability at 0.1 µM (HCC827 [10])?
**A.** Its viability at 0.1 µM is 39.5%.

**Q.** What about the Activity (HCC827 [11]) of the same molecule?
**A.** Its Activity is 43.7%.

**Q.** What about the Activity (HCC827 [12]) of the same molecule?
**A.** The Activity was 13.43%.

**Q.** What about the Activity (HCC827 [13]) of the same molecule?
**A.** The Activity was 7.72%.

**Q.** What about the viability at 1 µM (HCC827 [14]) of the same molecule?
**A.** The viability at 1 µM was 24.9%.

**Q.** And the inhibition [15]?
**A.** The inhibition was “Active”.

**Q.** What about the Activity (HCC827 [16]) of the same molecule?
**A.** Its Activity is 7.56%.

**Q.** With `Cc1ncsc1-c1ccc(CNC(=O)[C@@H]2C[C@@H](O)CN2C(=O)[C@@H](NCCOCCOCCOCCN2CCN(c3ccc(Nc4cc5c(N6CCC(CO)CC6)nc(Nc6ccc(F)cc6)nc5cn4)nc3)CC2)C(C)(C)C)cc1` as the molecule, how does the IC50 (HCC827 [1]) read?
**A.** Its IC50 is 710 nM.

**Q.** What about the IC50 (A549) of the same molecule?
**A.** The IC50 was 6390 nM.

**Q.** And the IC50 (A-431)?
**A.** Its IC50 is 2320 nM.

**Q.** And the IC50 (NCI-H1975)?
**A.** The IC50 was 2640 nM.

**Q.** Which IC50 (HCC827 [1]) does the source give for `O=C1CCC(N2Cc3c(NC(=O)CCCCCN4CCN(c5ccc(Nc6cc7c(N8CCC(CO)CC8)nc(Nc8ccc(F)cc8)nc7cn6)nc5)CC4)cccc3C2=O)C(=O)N1` (stereo not drawn) here?
**A.** The IC50 was greater than 10000 nM.

**Q.** How did the IC50 (HCC827 [1]) turn out when `Nc1cccc2c1CN(C1CCC(=O)NC1=O)C2=O` (stereo not drawn) [LENALIDOMIDE] was run?
**A.** Its IC50 is greater than 10000 nM.
